Test results: patent US20060100284A1, “Growth promotor” (priority 2002, published 2006)

How the values were obtained:
[1] = test system: weaned pigs and swine grown for pork meat; conditions: Partanen et al. 2002; cited from earlier work
[2] = test system: weaned pigs and growing swine; assay: Swine feeding test with feed additives; assay type: in vivo
Procedure: The composition of the invention was tested using weaned pigs and growing swine. The test comprised a total of 240 swine from 30 different litters. […] The composition of the invention was compared to a control without additives and to an antibiotic feed additive (Avilamycin) at the weaning and growth stage.

slaughter animals = conditions: Kirchgessner et al. 1995; cited from earlier work
[3] = Growth and final growth stage, additive in feed (6 g/kg for acids)
[4] = Weaning stage, additive in feed (8 g/kg for acids)

Row | Compound | growth promoter effect in feed [1] | Daily growth [2, 3] [g/day] | Final weight [2, 3] [kg] | Daily growth [2, 4] [g/day] | Final weight [2, 4] [kg] | increase in weight of slaughter animals (slaughter animals)
1 | O=CO [F, formic acid] | acts as a growth promoter | 869 | 106.0 | 308 | 18.5 | –
2 | C/C=C/C=C/C(=O)O [sorbic acid] | – | – | – | – | – | enhanced
3 | avilamycin | – | 845 | 107.1 | 335 | 19.3 | –
